± gives the expanded uncertainty stated by the source.
Assay: xn = mol fraction of the nth substance listed
Conditions: 101 kPa, Liquid; for mass density: Vibrating tube method

CCCC[n+]1ccc(C)cc1.F[B-](F)(F)F [1-butyl-4-methylpyridinium tetrafluoroborate] + CCO
Conditions	kinematic viscosity, 293.15 K [m2/s]	kinematic viscosity, 303.15 K [m2/s]	kinematic viscosity, 313.15 K [m2/s]	kinematic viscosity, 323.15 K [m2/s]	mass density, 293.15 K [kg/m3]	mass density, 303.15 K [kg/m3]	mass density, 313.15 K [kg/m3]	mass density, 323.15 K [kg/m3]
x1 = 0.0481	1.95e-06 ± 2.9e-08	1.61e-06 ± 2.4e-08	1.34e-06 ± 2e-08	1.14e-06 ± 1.7e-08	852 ± 0.31	843.78 ± 0.31	835.55 ± 0.31	827.17 ± 0.32
x1 = 0.0952	2.57e-06 ± 3.8e-08	2.07e-06 ± 3.1e-08	1.69e-06 ± 2.5e-08	1.41e-06 ± 2.1e-08	900.2 ± 0.28	892.25 ± 0.28	884.1 ± 0.29	875.8 ± 0.29
x1 = 0.1896	4.08e-06 ± 5.9e-08	3.17e-06 ± 4.6e-08	2.53e-06 ± 3.7e-08	2.08e-06 ± 3.1e-08	972.12 ± 0.26	964.56 ± 0.26	956.53 ± 0.26	948.48 ± 0.27
x1 = 0.2856	6.35e-06 ± 8.9e-08	4.76e-06 ± 6.9e-08	3.75e-06 ± 5.5e-08	3.03e-06 ± 4.4e-08	1024.13 ± 0.25	1016.72 ± 0.25	1008.96 ± 0.25	1001.26 ± 0.25
x1 = 0.3839	9.91e-06 ± 1.4e-07	7.25e-06 ± 1e-07	5.54e-06 ± 8e-08	4.4e-06 ± 6.4e-08	1063.87 ± 0.26	1056.57 ± 0.26	1049.08 ± 0.26	1041.7 ± 0.26
x1 = 0.5297	1.96e-05 ± 2.6e-07	1.44e-05 ± 1.9e-07	1.05e-05 ± 1.4e-07	7.4e-06 ± 1e-07	1107.23 ± 0.29	1100.11 ± 0.28	1092.88 ± 0.28	1085.83 ± 0.28
x1 = 0.5858	2.57e-05 ± 3.4e-07	1.76e-05 ± 2.3e-07	1.33e-05 ± 1.8e-07	9.33e-06 ± 1.3e-07	1120.51 ± 0.3	1113.47 ± 0.29	1106.29 ± 0.29	1099.32 ± 0.29
x1 = 0.6862	4e-05 ± 5.3e-07	2.78e-05 ± 3.7e-07	1.96e-05 ± 2.6e-07	1.36e-05 ± 1.9e-07	1140.91 ± 0.32	1133.97 ± 0.32	1126.84 ± 0.31	1119.98 ± 0.31
x1 = 0.7889	7.27e-05 ± 1.2e-06	4.37e-05 ± 5.8e-07	3.05e-05 ± 4.1e-07	2.08e-05 ± 2.8e-07	1158.26 ± 0.35	1151.41 ± 0.34	1144.3 ± 0.34	1137.51 ± 0.33
x1 = 0.8418	9.79e-05 ± 2.3e-06	5.71e-05 ± 6.8e-07	3.87e-05 ± 5.2e-07	2.59e-05 ± 3.5e-07	1166.08 ± 0.36	1159.26 ± 0.36	1152.16 ± 0.35	1145.41 ± 0.35
x1 = 0.8942	0.000132 ± 4.4e-06	7.41e-05 ± 1.2e-06	4.81e-05 ± 6.4e-07	3.15e-05 ± 4.2e-07	1173.2 ± 0.37	1166.4 ± 0.37	1159.32 ± 0.36	1152.61 ± 0.36
x1 = 0.946	0.000177 ± 7.6e-06	9.52e-05 ± 2.2e-06	5.94e-05 ± 7.4e-07	3.79e-05 ± 5.1e-07	1179.69 ± 0.39	1172.89 ± 0.38	1165.84 ± 0.38	1159.18 ± 0.37

CCCC[n+]1ccc(C)cc1.F[B-](F)(F)F [1-butyl-4-methylpyridinium tetrafluoroborate] + CO
Conditions	kinematic viscosity, 293.15 K [m2/s]	kinematic viscosity, 303.15 K [m2/s]	kinematic viscosity, 313.15 K [m2/s]	kinematic viscosity, 323.15 K [m2/s]	mass density, 293.15 K [kg/m3]	mass density, 303.15 K [kg/m3]	mass density, 313.15 K [kg/m3]	mass density, 323.15 K [kg/m3]
x1 = 0.0477	1.02e-06 ± 1.5e-08	8.83e-07 ± 1.4e-08	7.78e-07 ± 1.2e-08	6.88e-07 ± 1.1e-08	876.71 ± 0.33	867.94 ± 0.33	858.74 ± 0.33	849.6 ± 0.34
x1 = 0.0958	1.42e-06 ± 2.1e-08	1.2e-06 ± 1.8e-08	1.02e-06 ± 1.5e-08	8.92e-07 ± 1.4e-08	936.07 ± 0.28	927.56 ± 0.28	918.89 ± 0.28	910.02 ± 0.29
x1 = 0.2055	2.83e-06 ± 4.1e-08	2.29e-06 ± 3.3e-08	1.91e-06 ± 2.8e-08	1.62e-06 ± 2.4e-08	1021.53 ± 0.25	1013.48 ± 0.25	1005.4 ± 0.25	997.15 ± 0.26
x1 = 0.2889	4.57e-06 ± 6.5e-08	3.6e-06 ± 5.2e-08	2.92e-06 ± 4.2e-08	2.44e-06 ± 3.6e-08	1062.26 ± 0.23	1054.51 ± 0.24	1046.65 ± 0.23	1038.82 ± 0.24
x1 = 0.3846	7.5e-06 ± 1e-07	5.73e-06 ± 8.1e-08	4.53e-06 ± 6.5e-08	3.7e-06 ± 5.3e-08	1095.45 ± 0.24	1087.98 ± 0.24	1080.32 ± 0.24	1072.88 ± 0.24
x1 = 0.4866	1.31e-05 ± 1.7e-07	9.56e-06 ± 1.3e-07	7.3e-06 ± 1e-07	5.78e-06 ± 8.2e-08	1121.16 ± 0.25	1113.92 ± 0.25	1106.46 ± 0.25	1099.31 ± 0.25
x1 = 0.589	2.12e-05 ± 2.8e-07	1.58e-05 ± 2.1e-07	1.15e-05 ± 1.5e-07	8.6e-06 ± 1.2e-07	1140.6 ± 0.27	1133.51 ± 0.27	1126.23 ± 0.27	1119.29 ± 0.27
x1 = 0.7073	3.61e-05 ± 4.7e-07	2.59e-05 ± 3.4e-07	1.9e-05 ± 2.5e-07	1.3e-05 ± 1.8e-07	1157.8 ± 0.3	1150.84 ± 0.3	1143.72 ± 0.3	1136.94 ± 0.3
x1 = 0.7963	6.42e-05 ± 8.7e-07	4.11e-05 ± 5.4e-07	2.8e-05 ± 3.7e-07	1.93e-05 ± 2.6e-07	1168.12 ± 0.33	1161.22 ± 0.33	1154.18 ± 0.32	1147.48 ± 0.32
x1 = 0.8459	8.43e-05 ± 1.7e-06	5.16e-05 ± 5.7e-07	3.41e-05 ± 4.5e-07	2.29e-05 ± 3.1e-07	1173.12 ± 0.35	1166.24 ± 0.34	1159.23 ± 0.34	1152.56 ± 0.34
x1 = 0.8947	0.00012 ± 3.7e-06	6.92e-05 ± 1e-06	4.41e-05 ± 5.9e-07	2.85e-05 ± 3.8e-07	1177.58 ± 0.36	1170.73 ± 0.36	1163.73 ± 0.36	1157.09 ± 0.35
x1 = 0.9465	0.000168 ± 7e-06	9.14e-05 ± 2e-06	5.59e-05 ± 6.6e-07	3.56e-05 ± 4.8e-07	1181.89 ± 0.38	1175.06 ± 0.38	1168.07 ± 0.37	1161.45 ± 0.37

— the NIST ThermoML archive (doi:10.1021/je300557g)
